Columns and labels:
Experiment in all cases: Test D controlled growth environment herbicide test, pre- and postemergence
Type in all cases: in vivo
[1] = tested on: barley, spring (spring barley, Hordeum vulgare)
Summary of the method: (§1)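 Rating is visual, 0–100 scale (100 = complete control), made against untreated plants 14–21 d after treatment in controlled growth conditions. Postemergence sprays went onto 1- to 4-leaf plants in peat medium; preemergence sprays onto silt loam after sowing; formulation included a surfactant.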

[2] = tested on: blackgrass (Alopecurus myosuroides)
Summary of the method: as §1

[3] = tested on: bluegrass (annual bluegrass, Poa annua)
Summary of the method: as §1

[4] = tested on: chamomile (scentless chamomile, Matricaria inodora)
Summary of the method: as §1

[5] = tested on: field poppy (Papaver rhoeas)
Summary of the method: as §1

[6] = tested on: foxtail, green (green foxtail, Setaria viridis)
Summary of the method: as §1

[7] = tested on: lambsquarters (Chenopodium album)
Summary of the method: as §1

[8] = tested on: mustard, wild (wild mustard, Sinapis arvensis)
Summary of the method: as §1

[9] = tested on: oilseed rape (Brassica napus)
Summary of the method: as §1

[10] = tested on: ryegrass, Italian (Italian ryegrass, Lolium multiflorum)
Summary of the method: as §1

[11] = tested on: speedwell (bird's-eye speedwell, Veronica persica)
Summary of the method: as §1

[12] = tested on: wheat, spring (spring wheat, Triticum aestivum)
Summary of the method: as §1

[13] = tested on: wheat, winter (winter wheat, Triticum aestivum)
Summary of the method: as §1

[14] = Postemergence, 31 g ai/ha, scale 0 to 100 (0 no effect, 100 complete control)
[15] = Postemergence, 125 g ai/ha, visual rating on scale 0 (no effect) to 100 (complete control), 14 to 21 d
[16] = Postemergence, 250 g ai/ha, scale 0 to 100 (0 no effect, 100 complete control)
[17] = Preemergence, 62 g ai/ha, scale 0 to 100 (0 no effect, 100 complete control)
[18] = Preemergence, 125 g ai/ha, scale 0 to 100 (0 no effect, 100 complete control)
[19] = Preemergence, 250 g ai/ha, scale 0 to 100 (0 no effect, 100 complete control)
[20] = postemergence, 62 g ai/ha, scale 0 to 100, 0 no effect, 100 complete control

In the case of `Cc1nn(C)c(=O)c(-c2c(C)sc3ccc(Cl)cc23)c1O` [Compound 104], the “Barley, Spring plant response rating” value [1, 14] is reported as 0, the “Plant response rating, Barley, Spring” value [1, 15] is reported as 10 and the “Plant response rating, Barley, Spring” value [1, 16] is reported as 15. The “Plant response rating (scale of 0 to 100), Barley, Spring” value ([1]; Preemergence, 31 g ai/ha) was 0, the “Plant response rating, Barley, Spring” value [1, 17] was 0 and the “Plant response rating, Barley, Spring” value [1, 18] was 5. The “Plant response rating, Barley, Spring” value [1, 19] was 15, the “Plant response rating, Barley, Spring” value [1, 20] was 10 and the “Blackgrass plant response rating” value [2, 14] was 35. For the same compound, the “Plant response rating, Blackgrass” value [2, 15] was 65, the “Plant response rating, Blackgrass” value [2, 16] was 70 and the “Plant response rating (scale of 0 to 100), Blackgrass” value ([2]; Preemergence, 31 g ai/ha) was 25. The “Plant response rating, Blackgrass” value [2, 17] was 60, the “Plant response rating, Blackgrass” value [2, 18] was 65 and the “Plant response rating, Blackgrass” value [2, 19] was 75. The “Plant response rating, Blackgrass” value [2, 20] was 40, the “Bluegrass plant response rating” value [3, 14] was 10 and the “Plant response rating, Bluegrass” value [3, 15] was 20. For the same compound, the “Plant response rating, Bluegrass” value [3, 16] was 30, the “Plant response rating (scale of 0 to 100), Bluegrass” value ([3]; Preemergence, 31 g ai/ha) was 35 and the “Plant response rating, Bluegrass” value [3, 17] was 35. The “Plant response rating, Bluegrass” value [3, 18] was 70, the “Plant response rating, Bluegrass” value [3, 19] was 75 and the “Plant response rating, Bluegrass” value [3, 20] was 10. The “Chamomile plant response rating” value [4, 14] was 80, the “Plant response rating, Chamomile” value [4, 15] was 95 and the “Plant response rating, Chamomile” value [4, 16] was 100. The “Plant response rating, Chamomile” value [4, 20] was 85, the “Field Poppy plant response rating” value [5, 14] was 15 and the “Plant response rating, Field Poppy” value [5, 15] was 75. The “Plant response rating, Field Poppy” value [5, 16] was 80, the “Plant response rating (scale of 0 to 100), Field Poppy” value ([5]; Preemergence, 31 g ai/ha) was 0 and the “Plant response rating (scale of 0 to 100), Field Poppy” value ([5]; Preemergence, 62 g ai/ha) was 100. The “Plant response rating, Field Poppy” value [5, 18] was 100, the “Plant response rating, Field Poppy” value [5, 19] was 100 and the “Plant response rating, Field Poppy” value [5, 20] was 65. The “Foxtail, Green plant response rating” value [6, 14] was 30, the “Plant response rating, Foxtail, Green” value [6, 15] was 85 and the “Plant response rating, Foxtail, Green” value [6, 16] was 90. The “Plant response rating (scale of 0 to 100), Foxtail, Green” value ([6]; Preemergence, 31 g ai/ha) was 20, the “Plant response rating (scale of 0 to 100), Foxtail, Green” value ([6]; Preemergence, 62 g ai/ha) was 70 and the “Plant response rating, Foxtail, Green” value [6, 18] was 100. The “Plant response rating, Foxtail, Green” value [6, 19] was 100, the “Plant response rating, Foxtail, Green” value [6, 20] was 70 and the “Lambsquarters plant response rating” value [7, 14] was 95. For the same compound, the “Plant response rating, Lambsquarters” value [7, 15] was 100, the “Plant response rating, Lambsquarters” value [7, 16] was 100 and the “Plant response rating (scale of 0 to 100), Lambsquarters” value ([7]; Preemergence, 31 g ai/ha) was 75. The “Plant response rating (scale of 0 to 100), Lambsquarters” value ([7]; Preemergence, 62 g ai/ha) was 100, the “Plant response rating, Lambsquarters” value [7, 18] was 100 and the “Plant response rating, Lambsquarters” value [7, 19] was 100. The “Plant response rating, Lambsquarters” value [7, 20] was 100, the “Mustard, Wild plant response rating” value [8, 14] was 70 and the “Plant response rating, Mustard, Wild” value [8, 15] was 85. For the same compound, the “Plant response rating, Mustard, Wild” value [8, 16] was 90, the “Plant response rating (scale of 0 to 100), Mustard, Wild” value ([8]; Preemergence, 31 g ai/ha) was 10 and the “Plant response rating (scale of 0 to 100), Mustard, Wild” value ([8]; Preemergence, 62 g ai/ha) was 70. For the same compound, the “Plant response rating, Mustard, Wild” value [8, 18] was 75, the “Plant response rating, Mustard, Wild” value [8, 19] was 95 and the “Plant response rating, Mustard, Wild” value [8, 20] was 75. For the same compound, the “Oilseed Rape plant response rating” value [9, 14] was 70, the “Plant response rating, Oilseed Rape” value [9, 15] was 90 and the “Plant response rating, Oilseed Rape” value [9, 16] was 95. For the same compound, the “Plant response rating (scale of 0 to 100), Oilseed Rape” value ([9]; Preemergence, 31 g ai/ha) was 15, the “Plant response rating (scale of 0 to 100), Oilseed Rape” value ([9]; Preemergence, 62 g ai/ha) was 20 and the “Plant response rating, Oilseed Rape” value [9, 18] was 55. The “Plant response rating, Oilseed Rape” value [9, 19] was 55, the “Plant response rating, Oilseed Rape” value [9, 20] was 75 and the “Ryegrass, Italian plant response rating” value [10, 14] was 90. The “Plant response rating, Ryegrass, Italian” value [10, 15] was 95, the “Plant response rating, Ryegrass, Italian” value [10, 16] was 95 and the “Plant response rating (scale of 0 to 100), Ryegrass, Italian” value ([10]; Preemergence, 31 g ai/ha) was 100. The “Plant response rating (scale of 0 to 100), Ryegrass, Italian” value ([10]; Preemergence, 62 g ai/ha) was 100, the “Plant response rating, Ryegrass, Italian” value [10, 18] was 100 and the “Plant response rating, Ryegrass, Italian” value [10, 19] was 100. The “Plant response rating, Ryegrass, Italian” value [10, 20] was 95, the “Speedwell plant response rating” value [11, 14] was 30 and the “Plant response rating, Speedwell” value [11, 15] was 55. The “Plant response rating, Speedwell” value [11, 16] was 70, the “Plant response rating, Speedwell” value [11, 20] was 35 and the “Wheat, Spring plant response rating” value [12, 14] was 10. For the same compound, the “Plant response rating, Wheat, Spring” value [12, 15] was 20, the “Plant response rating, Wheat, Spring” value [12, 16] was 30 and the “Plant response rating (scale of 0 to 100), Wheat, Spring” value ([12]; Preemergence, 31 g ai/ha) was 0. The “Plant response rating (scale of 0 to 100), Wheat, Spring” value ([12]; Preemergence, 62 g ai/ha) was 15, the “Plant response rating, Wheat, Spring” value [12, 18] was 35 and the “Plant response rating, Wheat, Spring” value [12, 19] was 45. The “Plant response rating, Wheat, Spring” value [12, 20] was 15, the “Wheat, Winter plant response rating” value [13, 14] was 5 and the “Plant response rating, Wheat, Winter” value [13, 15] was 20. For the same compound, the “Plant response rating, Wheat, Winter” value [13, 16] was 25, the “Plant response rating (scale of 0 to 100), Wheat, Winter” value ([13]; Preemergence, 31 g ai/ha) was 0 and the “Plant response rating (scale of 0 to 100), Wheat, Winter” value ([13]; Preemergence, 62 g ai/ha) was 0. The “Plant response rating, Wheat, Winter” value [13, 18] was 5, the “Plant response rating, Wheat, Winter” value [13, 19] was 15 and the “Plant response rating, Wheat, Winter” value [13, 20] was 15.
